Data from ChEMBL document CHEMBL1135257, “Bivalent inhibition of beta-tryptase: distance scan of neighboring subunits by dibasic inhibitors” (Bioorg Med Chem Lett, 2002).

Molecular target: Tryptase beta-1 (Homo sapiens, UniProt Q15661)
Test: Inhibitory activity against human Tryptase beta was evaluated

Chain of Tryptase beta-1 (Q15661 whole entry): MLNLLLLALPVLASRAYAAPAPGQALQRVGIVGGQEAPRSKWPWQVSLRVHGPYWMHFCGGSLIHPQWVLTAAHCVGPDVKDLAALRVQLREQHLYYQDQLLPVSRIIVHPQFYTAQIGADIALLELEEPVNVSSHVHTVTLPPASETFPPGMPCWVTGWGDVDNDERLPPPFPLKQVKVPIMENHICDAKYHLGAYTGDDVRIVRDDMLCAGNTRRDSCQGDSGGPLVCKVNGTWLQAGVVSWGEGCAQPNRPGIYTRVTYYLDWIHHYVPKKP

## COC(=O)C(Cc1cccc(CN)c1)NC(=O)CCNC(=O)C[C@@H]1NC(=O)[C@@H](CC(=O)NCCC(=O)NC(Cc2cccc(CN)c2)C(=O)OC)NC1=O (some centres not stated)
  Ki: 10 nM

## COC(=O)C(Cc1cccc(CN)c1)NC(=O)CC[C@@H]1NC(=O)[C@@H](CC(=O)NCC(=O)NC(Cc2cccc(CN)c2)C(=O)OC)NC1=O (some centres not stated)
  Ki: 180 nM

## COC(=O)C(Cc1cccc(CN)c1)NC(=O)CCCNC(=O)C[C@@H]1NC(=O)[C@@H](CC(=O)NCCCC(=O)NC(Cc2cccc(CN)c2)C(=O)OC)NC1=O (some centres not stated)
  Ki: 350 nM

## COC(=O)C(Cc1cccc(CN)c1)NC(=O)CCC1NC(=O)[C@@H](CCC(=O)NC(Cc2cccc(CN)c2)C(=O)OC)NC1=O (some centres not stated)
  Ki: 2400 nM

## COC(=O)[C@@H](Cc1ccc(CN)cc1)NC(C)=O
  Ki: 213000 nM

## COC(=O)C(Cc1cccc(CN)c1)NC(=O)CNC(=O)C[C@@H]1NC(=O)[C@@H](CC(=O)NCC(=O)NC(Cc2cccc(CN)c2)C(=O)OC)NC1=O (some centres not stated)
  Ki: 18 nM

## COC(=O)[C@@H](Cc1cccc(CN)c1)NC(C)=O
  Ki: 13700 nM
